Laboratory results as given in patent US8309558B2, “Compounds for the treatment of hepatitis C” (Bristol-Myers Squibb Company, priority 2008, dated 2012).

Columns and labels:
[1] = target: T1, HCV NS5B RdRp genotype 1b (Hepatitis C virus genotype 1b, UniProt Q9WMX2); assay: Standard HCV NS5B RdRp enzyme assay; type: biochemical; details: Table 1a; HCV NS5B RdRp genotype 1b; read-out: IC50
T1 construct: The protein was expressed with an 18 amino acid C-terminal truncation to enhance the solubility; made in house; host or cells: E. coli BL21(DE3), pET21a vector
Description: HCV NS5B RdRp cloning, expression, and purification. The cDNA encoding the NS5B protein of HCV, genotype 1b, was cloned into the pET21a expression vector. The protein was expressed with an 18 amino acid C-terminal truncation to enhance the solubility. The E. coli competent cell line BL21(DE3) was used for expression of the protein. Cultures were grown at 37° C. for ˜4 hours until the cultures reached an optical density of 2.0 at 600 nm. The cultures were cooled to 20° C. and induced with 1 mM IPTG. Fresh ampicillin was added to a final concentration of 50 μg/ml and the cells were grown overnight at 20° C.
Cell pellets (3 L) were lysed for purification to yield 15-24 mgs of purified NS5B. The lysis buffer consisted of 20 mM Tris-HCl, pH 7.4, 500 mM NaCl, 0.5% triton X-100, 1 mM DTT, 1 mM EDTA, 20% glycerol, 0.5 mg/ml lysozyme, 10 mM MgCl2, 15 ug/ml deoxyribonuclease I, and Complete TM protease inhibitor tablets (Roche). After addition of the lysis buffer, frozen cell pellets were resuspended using a tissue homogenizer. To reduce the viscosity of the sample, aliquots of the lysate were sonicated on ice using a microtip attached to a Branson sonicator. The sonicated lysate was centrifuged at 100,000×g for 1 hr at 4° C. and filtered through a 0.2 μm filter unit (Corning).
The protein was purified using three sequential chromatography steps: Heparin sepharose CL-6B, polyU sepharose 4B, and Hitrap SP sepharose (Pharmacia). The chromatography buffers were identical to the lysis buffer but contained no lysozyme, deoxyribonuclease I, MgC12 or protease inhibitor and the NaCl concentration of the buffer was adjusted according to the requirements for charging the protein onto the column. Each column was eluted with a NaCl gradient which varied in length from 5-50 column volumes depending on the column type. After the final chromatography step, the resulting purity of the enzyme is >90% based on SDS-PAGE analysis. The enzyme was aliquoted and stored at −80° C.
Standard HCV NS5B RdRp enzyme assay. HCV RdRp genotype 1b assays were run in a final volume of 60 μl in 96 well plates (Costar 3912). The assay buffer composed of 20 mM Hepes, pH 7.5, 2.5 mM KCl, 2.5 mM MgCl2, 1 mM DTT, 1.6 U RNAse inhibitor (Promega N2515), 0.1 mg/ml BSA (Promega R3961), and 2% glycerol. All compounds were serially diluted (3-fold) in DMSO and diluted further in water such that the final concentration of DMSO in the assay was 2%. HCV RdRp genotype 1b enzyme was used at a final concentration of 28 nM. A polyA template was used at 6 nM, and a biotinylated oligo-dT12 primer was used at 180 nM final concentration. Template was obtained commercially (Amersham 27-4110). Biotinylated primer was prepared by Sigma Genosys. 3H-UTP was used at 0.6 μCi (0.29 μM total UTP). Reactions were initiated by the addition of enzyme, incubated at 30° C. for 60 min, and stopped by adding 25 μl of 50 mM EDTA containing SPA beads (4 μg/μl, Amersham RPNQ 0007). Plates were read on a Packard Top Count NXT after >1 hr incubation at room temperature.
IC50 values for compounds were determined using seven different [I]. IC50 values were calculated from the inhibition using the formula y=A+((B−A)/(1+((C/x)^D))).

HCV replicon cells = assay: HCV replicon FRET / luciferase assay (96-well plates); type: cell-based; details: Hepatitis C virus, Table 1a; HCV replicon; read-out: EC50
In short: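 Replicon cells + titrated cpds, 37 °C CO2. Alamar blue for cytotoxicity, PBS rinse, then lysis reagent w/ 20 μM FRET peptide (EDANS/DABCYL), 150 mM NaCl; kinetic read ex340/em490, 20 cycles. Alt: Dual-Glo luciferase. EC50 = 50% drop in FRET/luciferase signal after background subtraction.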

T1 sequence (Q9WMX2 2420-2992): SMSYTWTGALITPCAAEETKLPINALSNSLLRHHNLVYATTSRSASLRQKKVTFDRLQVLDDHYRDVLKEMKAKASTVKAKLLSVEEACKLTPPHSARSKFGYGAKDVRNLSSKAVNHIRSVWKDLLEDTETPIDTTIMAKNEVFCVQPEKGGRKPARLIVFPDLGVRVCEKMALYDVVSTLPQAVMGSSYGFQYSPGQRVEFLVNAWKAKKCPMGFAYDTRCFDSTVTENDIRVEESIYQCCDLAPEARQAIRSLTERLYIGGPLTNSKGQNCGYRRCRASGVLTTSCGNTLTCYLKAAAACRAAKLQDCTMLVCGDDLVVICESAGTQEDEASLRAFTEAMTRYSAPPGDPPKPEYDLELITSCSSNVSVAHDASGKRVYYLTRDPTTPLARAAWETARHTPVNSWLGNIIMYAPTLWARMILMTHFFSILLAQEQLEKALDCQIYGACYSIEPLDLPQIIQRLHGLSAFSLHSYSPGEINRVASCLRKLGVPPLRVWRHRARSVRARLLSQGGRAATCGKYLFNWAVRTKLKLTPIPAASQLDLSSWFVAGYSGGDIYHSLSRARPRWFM

Row | Structure (SMILES) | IC50 [1] [nM] | EC50 (HCV replicon cells) [nM]
1 | CNC(=O)c1c(-c2ccc(F)cc2)oc2ccc(-c3cccc(C(=O)NC(C)(C)C)c3)cc12 | < 250 | < 250
2 | CNC(=O)c1c(-c2ccc(F)cc2)oc2ccc(-c3cccc(C(=O)N(C)C(C)(C)C)c3)cc12 | < 250 | < 250
3 | CNC(=O)c1c(-c2ccc(F)cc2)oc2ccc(-c3cccc(C(=O)Nc4cc(C)nn4C)c3)cc12 | < 250 | < 250
4 | CNC(=O)c1c(-c2ccc(F)cc2)oc2ccc(-c3cccc(C(=O)NCc4cccc(O)c4)c3)cc12 | 250 to 1000 | < 250
5 | CNC(=O)c1c(-c2ccc(F)cc2)oc2ccc(-c3cccc(C(=O)NCCC(C)(C)C)c3)cc12 | < 250 | < 250
6 | CNC(=O)c1c(-c2ccc(F)cc2)oc2ccc(-c3cccc(C(=O)Nc4ccccc4-c4ccccc4)c3)cc12 | 1000 to 10000 | < 250
7 | CNC(=O)c1c(-c2ccc(F)cc2)oc2cc(N(CCO)S(C)(=O)=O)c(-c3cccc(C(=O)NC(C)(C)c4ccccc4)c3)cc12 | < 250 | < 250
8 | CNC(=O)c1c(-c2ccc(F)cc2)oc2ccc(-c3cccc(C(=O)NC(C)(C)C(=O)N(C)C)c3)cc12 | < 250 | < 250
9 | CNC(=O)c1c(-c2ccc(F)cc2)oc2cc(N)c(-c3cccc(C(=O)NC4(c5ccccc5)CC4)c3)cc12 | < 250 | < 250
10 | CNC(=O)c1c(-c2ccc(F)cc2)oc2ccc(-c3cccc(-c4nnc(C(C)C)o4)c3)cc12 | < 250 | < 250
11 | CNC(=O)c1c(-c2ccc(F)cc2)oc2ccc(-c3cc(C(=O)NCC(C)C)ccc3F)cc12 | < 250 | < 250
12 | CNC(=O)c1c(-c2ccc(F)cc2)oc2ccc(-c3cccc(C(=O)NC(C)(C)C(=O)NC)c3)cc12 | < 250 | < 250
13 | CNC(=O)c1c(-c2ccc(F)cc2)oc2ccc(-c3cccc(C(=O)NC(C)(C)C(=O)Nc4nccs4)c3)cc12 | < 250 | < 250
14 | CNC(=O)c1c(-c2ccc(F)cc2)oc2ccc(-c3cccc(C(=O)NC(C)(C)C(=O)NCC(F)F)c3)cc12 | < 250 | < 250
15 | CNC(=O)c1c(-c2ccc(F)cc2)oc2ccc(-c3cc(C(=O)CCC(C)C)ccc3OCCN(C)C)cc12 | < 250 | < 250
16 | CNC(=O)c1c(-c2ccc(F)cc2)oc2ccc(-c3cn[nH]c3)cc12 | > 10000 | 250 to 1000
17 | CNC(=O)c1c(-c2ccc(F)cc2)oc2ccc(-c3ccc(OCC(C)C)cc3)cc12 | > 10000 | > 400
18 | CNC(=O)c1c(-c2ccc(F)cc2)oc2ccc(-c3cc(OC)ncc3F)cc12 | > 10000 | > 620
19 | CNC(=O)c1c(-c2ccc(F)cc2)oc2ccc(-c3ccc(NC(=O)OC(C)(C)C)cc3)cc12 | > 10000 | > 400
20 | CNC(=O)c1c(-c2ccc(F)cc2)oc2ccc(-c3ccc(CO)cc3)cc12 | > 10000 | 250 to 1000
21 | CNC(=O)c1cccc(-c2ccc3oc(-c4ccc(F)cc4)c(C(=O)NC)c3c2)c1 | 1000 to 10000 | 250 to 1000
22 | CCNC(=O)c1cccc(-c2ccc3oc(-c4ccc(F)cc4)c(C(=O)NC)c3c2)c1 | 250 to 1000 | 250 to 1000
23 | CCCCNC(=O)c1cccc(-c2ccc3oc(-c4ccc(F)cc4)c(C(=O)NC)c3c2)c1 | < 250 | < 250
24 | CNC(=O)c1c(-c2ccc(F)cc2)oc2ccc(-c3cccc(C(=O)NCCC#N)c3)cc12 | 250 to 1000 | 250 to 1000
25 | CNC(=O)c1c(-c2ccc(F)cc2)oc2ccc(-c3cccc(C(=O)N(C)CC(C)C)c3)cc12 | < 250 | 250 to 1000
26 | CNC(=O)c1c(-c2ccc(F)cc2)oc2ccc(-c3cccc(C(=O)Nc4ccnn4C)c3)cc12 | 250 to 1000 | 250 to 1000

Row | Structure (SMILES) | IC50 [1] [nM] | EC50 (HCV replicon cells) [nM]
27 | CNC(=O)c1c(-c2ccc(F)cc2)oc2ccc(-c3cccc(C(=O)NCc4cnc(C)cn4)c3)cc12 | 250 to 1000 | 250 to 1000
28 | CNC(=O)c1c(-c2ccc(F)cc2)oc2ccc(-c3cccc(C(=O)NCCc4cccs4)c3)cc12 | 250 to 1000 | 250 to 1000
29 | CCOCCNC(=O)c1cccc(-c2ccc3oc(-c4ccc(F)cc4)c(C(=O)NC)c3c2)c1 | < 250 | 250 to 1000
30 | CNC(=O)c1c(-c2ccc(F)cc2)oc2ccc(-c3cccc(C(=O)NCC4CCOCC4)c3)cc12 | < 250 | 250 to 1000
31 | CNC(=O)c1c(-c2ccc(F)cc2)oc2ccc(-c3cccc(C(=O)NCc4nccs4)c3)cc12 | 250 to 1000 | 250 to 1000
32 | CNC(=O)c1c(-c2ccc(F)cc2)oc2ccc(-c3cccc(C(=O)NC4CC4)c3)cc12 | 250 to 1000 | 250 to 1000
33 | CNC(=O)c1c(-c2ccc(F)cc2)oc2ccc(-c3cccc(C(=O)N4CCc5ccccc54)c3)cc12 | 1000 to 10000 | 250 to 1000
34 | CNC(=O)c1c(-c2ccc(F)cc2)oc2ccc(-c3cccc(C(=O)NCc4ccncc4)c3)cc12 | < 250 | 250 to 1000
35 | CNC(=O)c1c(-c2ccc(F)cc2)oc2ccc(-c3cccc(C(=O)NCC4CCCO4)c3)cc12 (stereo not drawn) | < 250 | 250 to 1000
36 | CNC(=O)c1c(-c2ccc(F)cc2)oc2ccc(-c3cccc(C(=O)N4CCCC4)c3)cc12 | 250 to 1000 | 250 to 1000
37 | CNC(=O)c1c(-c2ccc(F)cc2)oc2ccc(-c3cccc(C(=O)NCC4CCCCC4)c3)cc12 | < 250 | 250 to 1000
38 | CNC(=O)c1c(-c2ccc(F)cc2)oc2ccc(-c3cccc(C(=O)N4CCC4)c3)cc12 | 250 to 1000 | 250 to 1000
39 | CNC(=O)c1c(-c2ccc(F)cc2)oc2ccc(-c3cccc(C(=O)NCc4ccccn4)c3)cc12 | < 250 | 250 to 1000
40 | CNC(=O)c1c(-c2ccc(F)cc2)oc2ccc(-c3cccc(C(=O)NCc4cccnc4)c3)cc12 | < 250 | 250 to 1000
41 | CNC(=O)c1c(-c2ccc(F)cc2)oc2ccc(-c3cccc(C(=O)Nc4nc(C)cs4)c3)cc12 | < 250 | 250 to 1000
42 | CNC(=O)c1c(-c2ccc(F)cc2)oc2ccc(-c3ccc(C(=O)NC(C)(C)C)cc3)cc12 | 1000 to 10000 | 250 to 1000
43 | CNC(=O)c1c(-c2ccc(F)cc2)oc2ccc(-c3ccc(C(=O)NCC(C)C)cc3)cc12 | > 10000 | 250 to 1000
44 | CNC(=O)c1c(-c2ccc(F)cc2)oc2ccc(-c3ccc(C(=O)N(C)CCc4ccccn4)cc3)cc12 | < 250 | < 250
45 | CNC(=O)c1c(-c2ccc(F)cc2)oc2ccc(-c3cccc(C(=O)Nc4ccncn4)c3)cc12 | 250 to 1000 | 250 to 1000
46 | CNC(=O)c1c(-c2ccc(F)cc2)oc2ccc(-c3cccc(C(=O)Nc4cccc(C)c4)c3)cc12 | 250 to 1000 | 250 to 1000
47 | CCOC(=O)CC(C)NC(=O)c1cccc(-c2ccc3oc(-c4ccc(F)cc4)c(C(=O)NC)c3c2)c1 (stereo not drawn) | < 250 | 250 to 1000
48 | CNC(=O)c1c(-c2ccc(F)cc2)oc2ccc(-c3cccc(C(=O)NC(CC(C)C)C(N)=O)c3)cc12 (stereo not drawn) | 250 to 1000 | 250 to 1000
49 | CNC(=O)c1c(-c2ccc(F)cc2)oc2ccc(-c3cccc(C(=O)NC(C)(C)CC(C)=O)c3)cc12 | 250 to 1000 | 250 to 1000
50 | CCn1nccc1NC(=O)c1cccc(-c2ccc3oc(-c4ccc(F)cc4)c(C(=O)NC)c3c2)c1 | 250 to 1000 | 250 to 1000
51 | CNC(=O)c1c(-c2ccc(F)cc2)oc2ccc(-c3cccc(C(=O)N[C@H]4CCC[C@H]4C(N)=O)c3)cc12 | 250 to 1000 | 250 to 1000
